In patent US20140329863A1 (priority 2011, published 2014):
In brackets after ≈: the same amount, converted by molar mass. Like-named read-outs stand apart in the source and are kept apart here.

Tests used:
[1] = tested on: PrP^Sc in dividing ScN2a-cl3 cells; type: cell-based, mouse; set-up: Dividing ELISA pEC50 (μM) 1st Expt. / Dividing ELISA pEC50 (μM) 2nd Expt. / Dividing ELISA pEC50 (μM) 3rd Expt. / Dividing ELISA pEC50 (μM) Mean: unit not given here
[2] = tested on: PrP^Sc in nondividing ScN2a-cl3 cells; type: cell-based, mouse; details: read-out: Non-Dividing ELISA EC50 (μM) Mean (n = 3); ScN2a-c13 non-dividing cells; mean n = 3
[3] = tested on: PrP^Sc in dividing ScN2a-c13 cells; details: dividing ScN2a-c13 cells; for EC50: read-out: EC50 (ELISA), reduction of PrP^Sc load
N2a-cl3 cells [4] = test: cells; details: Mus musculus, N2a-cl3, read-out: Dividing Calcein EC50 (μM) Mean (n = 3)
[5] = tested on: PrP^Sc in ScN2a-cl3 cells; type: cell-based, mouse; details: Western immunoblots
N2a-cl3 cells [6] = details: mouse
in vitro = details: mouse
PrP^C in T98G cells = type: cell-based, human
T98G cells = test: cells; type: cell-based, human; details: Homo sapiens, T98G, read-out: EC50 (μM) Calcein
[7] = Hepatic microsomal stability, mouse; details: mouse liver microsomes
[8] = Hepatic microsomal stability, human; details: human liver microsomes
[9] = ScN2a-cl3 dividing cells, 1st determination
[10] = ScN2a-cl3 dividing cells, 2nd determination
[11] = ScN2a-cl3 dividing cells, 3rd determination
[12] = read-out: Dividing ELISA EC50 (μM) 1st Expt., ScN2a-cl3 dividing cells, 1st determination
[13] = read-out: Dividing ELISA EC50 (μM) 2nd Expt., ScN2a-cl3 dividing cells, 2nd determination
[14] = read-out: Dividing ELISA EC50 (μM) 3rd Expt., ScN2a-cl3 dividing cells, 3rd determination
[15] = read-out: Dividing ELISA EC50 (μM) Mean, ScN2a-cl3 dividing cells, mean of three determinations
[16] = ScN2a-cl3 dividing cells, mean of three determinations
[17] = pH 1.2, simulated gastric fluid

SMILES | Dividing ELISA pEC50 (μM) 1st Expt. [1, 9] | Dividing ELISA pEC50 (μM) 2nd Expt. [1, 10] | Dividing ELISA pEC50 (μM) 3rd Expt. [1, 11] | EC50 [1, 12] | EC50 [1, 13] | EC50 [1, 14] | EC50 [1, 15] | EC50 [2] | melting point | EC50 (N2a-cl3 cells [4]) | solubility (physchem; [17]) | solubility (physchem; pH 7.4, aqueous buffer) | other results
CNc1nc(-c2ccc(OC)c(OC)c2)cs1 [compound 5, 4-(3,4-dimethoxyphenyl)-N-methyl-1,3-thiazol-2-amine] | >4.5 | >4.5 | >4.5 | > 32 µM | > 32 µM | > 32 µM | > 32 µM | > 32 µM | 120 to 123 °C | > 32 µM | – | – | antiprion activity (in words) [3]: without significant activity
CC(=O)c1ccc(NC(=O)c2sc3nc4c(cc3c2N)CCCC4)cc1 [IND-0024609] | – | – | – | – | – | – | – | – | – | – | – | – | EC50 ([1]; read-out: Antiprion activity EC50, thienopyridine analogs): > 10 µM; antiprion activity (in words) [3]: inactive
FC(F)(F)c1csc(Nc2cc3ccccc3cn2)n1 [compound 37, Isoquinolin-3-yl-(4-trifluoromethylthiazol-2-yl)-amine] | 5.05 | 5.14 | 5.01 | 9 µM | 7.26 µM | 9.71 µM | 8.66 µM | > 32 µM | 200 to 203 °C | > 32 µM | – | – | Dividing ELISA pEC50 (μM) Mean [1, 16]: 5.07; antiprion activity (in words) [3]: less potent
COc1ccc(-c2csc(Nc3cc4ccccc4cn3)n2)cc1 [compound 30, Isoquinolin-3-yl-[4-(4-methoxyphenyl)-thiazol-2-yl]-amine] | 6.65 | 6.41 | 6.38 | 0.226 µM | 0.385 µM | 0.414 µM | 0.342 µM | > 32 µM | 224 to 228 °C | > 32 µM | – | – | Dividing ELISA pEC50 (μM) Mean [1, 16]: 6.48; EC50 [3]: 340 nM
COc1ccc(Nc2nc(-c3cc(-c4ccccc4)no3)cs2)nc1 [compound 40, (5-Methoxypyridin-2-yl)-[4-(3-phenylisoxazol-5-yl)-thiazol-2-yl]-amine] | 6.40 | 6.96 | 6.74 | 0.395 µM | 0.11 µM | 0.183 µM | 0.229 µM | > 32 µM | 203 to 205 °C | > 32 µM | – | – | Dividing ELISA pEC50 (μM) Mean [1, 16]: 6.70; EC50 [3]: 230 nM
Cc1ccc(Nc2nc(C)cs2)nc1 [compound 29, (5-Methylpyridin-2-yl)-(4-methylthiazol-2-yl)-amine] | >4.5 | >4.5 | >4.5 | > 32 µM | > 32 µM | > 32 µM | > 32 µM | > 32 µM | 212 to 214 °C | > 32 µM | – | – | antiprion activity (in words) [3]: inactive
O=C(Nc1nc(-c2ccc(-c3ccccc3)cc2)cs1)C1CC1 [IND-0030410] | – | – | – | – | – | – | – | – | – | – | 17.7 µM (≈ 5.67 µg/mL) | 12.7 µM (≈ 4.07 µg/mL) | EC50 ([1]; read-out: EC50 (nM): ELISA, dividing ScN2a-cl3 cells): 0.317 µM; EC50 ([1]; read-out: Potency (nM) ELISA (EC50), PrP^Sc ELISA, dividing ScN2a-cl3 cells): 0.317 µM; EC50 ([5]; read-out: EC50 (nM): Western, ScN2a-cl3 cells): 194 nM; EC50 ([5]; read-out: Potency (nM) Western (EC50), dividing ScN2a-cl3 cells): 194 nM; EC50 (nM): Calcein (LC50 values from calcein assays) (N2a-cl3 cells [6]): MW: 320.4 EC50 (nM): ELISA: 317 Calcein: >10,000 Western: 194; CC50 (in vitro): > 10000 nM
Cc1cccc(Nc2nc(-c3ccc(-c4ccc(OC(C)C)nc4)cc3)cs2)n1 [IND-0116091] | – | – | – | – | – | – | – | – | – | – | 13.1 µM (≈ 5.27 µg/mL) | 3.2 µM (≈ 1.29 µg/mL) | –
COc1ccc(-c2csc(Nc3cccnc3)n2)cc1OC [compound 7, [4-(3,4-dimethoxyphenyl)-thiazol-2-yl]pyridin-3-yl-amine] | 5.85 | 5.94 | 5.96 | 1.41 µM | 1.16 µM | 1.1 µM | 1.22 µM | > 32 µM | 251 to 254 °C | > 32 µM | – | – | Dividing ELISA pEC50 (μM) Mean [1, 16]: 5.92; EC50 [3]: 1220 nM
O=C(Cc1ccc(-c2ccccc2)cc1)NCc1ccccc1 [IND116065] | – | – | – | – | – | – | – | – | – | – | – | – | Potency relative to the bromo analog (IND61769) (PrP^C in T98G cells): 10 times; EC50 (PrP^C in T98G cells; read-out: EC50 (μM) ELISA): 0.267 µM; EC50 (PrP^C in T98G cells; read-out: EC50 (μM) ELISA potency, PrP^C in T98G cells): 0.233 µM; EC50 (T98G cells): > 10 µM; Hepatic Extraction Ratio Mouse ([7]; predicted hepatic extraction): 0.83; half-life at 1 μM ([7]; mouse, pH 7.4): 12.3 min; Hepatic Extraction Ratio Human ([8]; predicted hepatic extraction): 0.86; half-life at 1 μM ([8]; human, pH 7.4): 11.1 min
COc1ccc(CC(=O)NCc2ccccc2)cc1 [IND6612] | – | – | – | – | – | – | – | – | – | – | – | – | Potency relative to the bromo analog (IND61769) (PrP^C in T98G cells): equal potency to the bromo analog; EC50 (PrP^C in T98G cells; read-out: EC50 (μM) ELISA): 3.36 µM; EC50 (T98G cells): > 10 µM
COCCOc1cccc(Nc2nc(-c3ccc(-c4ccccc4)cc3)cs2)n1 [IND-0116102] | – | – | – | – | – | – | – | – | – | – | 2.1 µM (≈ 0.847 µg/mL) | 2.7 µM (≈ 1.09 µg/mL) | –
Cc1csc(Nc2cc3ccccc3cn2)n1 [compound 36, Isoquinolin-3-yl-(4-methylthiazol-2-yl)-amine] | >4.5 | >4.5 | >4.5 | > 32 µM | > 32 µM | > 32 µM | > 32 µM | > 32 µM | 212 to 215 °C | > 32 µM | – | – | antiprion activity (in words) [3]: inactive
Cc1cccc(Nc2nc(-c3ccc(-c4ccc(N5CCN(C)CC5)nc4)cc3)cs2)n1 [IND-0116103] | – | – | – | – | – | – | – | – | – | – | 37.1 µM (≈ 16.4 µg/mL) | 4.4 µM (≈ 1.95 µg/mL) | –
Cc1cccc(Nc2nc(-c3ccc(-c4ccc(N(C)C)nc4)cc3)cs2)n1 [IND-0116044] | – | – | – | – | – | – | – | – | – | – | 77.1 µM (≈ 29.9 µg/mL) | 14.3 µM (≈ 5.54 µg/mL) | –
COCCOc1ccc(-c2ccc(-c3csc(Nc4cccc(C)n4)n3)cc2)cn1 [IND-0116094] | – | – | – | – | – | – | – | – | – | – | 62.8 µM (≈ 26.3 µg/mL) | 2.2 µM (≈ 0.921 µg/mL) | –
O=C(Cc1ccc(Cl)cc1)NCc1ccccc1 [IND126416] | – | – | – | – | – | – | – | – | – | – | – | – | EC50 (PrP^C in T98G cells; read-out: EC50 (μM) ELISA): > 10 µM; EC50 (PrP^C in T98G cells; read-out: EC50, PrP^C ELISA in T98G cells): > 10 µM; EC50 (T98G cells): > 10 µM
O=C(Cc1ccc(Br)cc1)NCc1ccccc1 [IND61769] | – | – | – | – | – | – | – | – | – | – | – | – | EC50 (PrP^C in T98G cells; read-out: EC50 (μM) ELISA): 2.33 µM; EC50 (T98G cells): > 10 µM
Cc1cccc(Nc2nc(-c3ccc(-c4ccc[n+]([O-])c4)cc3)cs2)n1 [IND-0116097] | – | – | – | – | – | – | – | – | – | – | 49 µM (≈ 17.7 µg/mL) | 5.1 µM (≈ 1.84 µg/mL) | –
